ChEMBL document CHEMBL3352169, “Fragment-based hit discovery and structure-based optimization of aminotriazoloquinazolines as novel Hsp90 inhibitors” (Bioorg Med Chem, 2014)

Experiments:
[1] = Permeability across apical to basolateral side in human Caco2 cells; format: ADME, cell-based; conditions: Caco-2
[2] = Intrinsic clearance in human liver microsomes; format: ADME; conditions: read-out: CLH
[3] = Clearance in mouse at 5 mg/kg, iv; format: ADME, organism-based; parameters: dose 5 mg/kg, route intravenous; conditions: in vivo
[4] = Oral bioavailability in mouse at 5 mg/kg; format: ADME, organism-based; conditions: in vivo
[5] = Intrinsic clearance in rat liver microsomes; format: ADME; conditions: read-out: CLH

Papp A→B [1]: 65.4 ×10⁻⁶ cm/s | CLint scaled [2]: 29.2 mL/min/kg | clearance [3]: 132 mL/min/kg | bioavailability [4]: 1.5% | CLint scaled [5]: 600 mL/min/kg
Structure (SMILES): OCCCNc1ccc2c(c1)nc(-c1ccc3c(c1)OCO3)n1ncnc21
